We go through 3 compounds from patent publication US10059674B2, “Design, synthesis, and biological evaluation of 1-methyl-1, 4-dihyrdoindeno[1,2-C]pyrazole analogues as potential anticaner agents targeting tubulin colchicine binding site” (ACT PHARMA CO., LTD., priority 2016, dated 2018).

Series [1] can be described thus: MDCK cell permeability test. As to conditions: dog, MDCK, 90 min; for Papp A→B at 90 min: Apparent permeability coefficient A→B; for Papp B→A at 90 min: Apparent permeability coefficient B→A.
Series [2] relates to MDCK cells.
A short description of series [3]: Liver microsomal metabolism stability test. As to conditions: mouse. A general note: Liver microsomes are vesicles of endoplasmic reticulum, rich in cytochrome P450 enzymes.
Series [4] deals with human prostate carcinoma (PC3) cells. Put plainly: Anti-proliferation test (MTT colorimetry). The class given is cell-based. As to conditions: PC-3, PC3, 72 h. The method, then: (§1) The compound of formula 1 (prepared in embodiment 1), and the compound of formula 2 (prepared in embodiment 2) are given at different concentrations to human hepatocellular carcinoma (HepG2) cells, human prostate carcinoma (PC3) cells, human cervical carcinoma (HeLa) cells, human breast adenocarcinoma (MCF-7) cells, and human leukemia (K562) cells; all the groups are incubated 72 h in an incubator containing 5% of CO2 at 37° C., and then inhabitation ratios of the compounds to the tumor cells are measured by using methyl thiazolyl tetrazolium (MTT) colorimetry, and results are shown in table 1.

Series [5] relates to human cervical carcinoma (HeLa) cells. Put plainly: Anti-proliferation test (MTT colorimetry). It is filed as cell-based. As to conditions: 72 h. The method, then: as §1
Series [6] has as its system human leukemia (K562) cells. Put plainly: Anti-proliferation test (MTT colorimetry). It is filed as cell-based. To be noted: K562, 72 h. How it is done:
as §1

Series [7] has as its system human breast adenocarcinoma (MCF-7) cells. Nature of the series: Anti-proliferation test (MTT colorimetry). It is filed as cell-based. As to conditions: MCF7, MCF-7, 72 h. How it is done:
as §1

The test system of series [8] is human hepatocellular carcinoma (HepG2) cells. Nature of the series: Anti-proliferation test (MTT colorimetry). It is filed as cell-based. As to conditions: HepG2, 72 h. The method, then: as §1
Series [9] can be described thus: in vitro. To be noted: dog, microsomes, pH 7.47.
A further series concerns P-gp. Put plainly: MDCK cell permeability test. As to conditions: dog, MDCK.
Series [10] deals with MDCK cells. Put plainly: MDCK cell permeability test.
In a further series the test system is tubulin. Nature of the series: Tubulin polymerization experiment (Cytoskeleton Tubulin Polymerization Assay Kit). The class given is biochemical. How it is done:
The tubulin polymerization experiment is carried out according to the specifications of Tubulin Polymerization Assay Kit of Cytoskeleton Corporation.

The nature of series [11]: in vitro. As to conditions: monkey, microsomes, pH 7.47.
Series [12] in a line: in vitro. As to conditions: human, microsomes, pH 7.47.
Series [13] in a line: in vitro. As to conditions: rat, microsomes, pH 7.47.
Series [14] is described as follows: in vitro. To be noted: mouse, liver microsomes, pH 7.47.
The nature of series [15]: Liver microsomal metabolism stability test. As to conditions: rat, microsomes, pH 7.47.
[16] abbreviates: Recovery rate A→B, 2nd line of the compound (condition not given).
The mark [17] stands for this setting: Recovery rate A→B, 1st line of the compound (condition not given; method: without / with 10 μM cyclosporine A).
Where [18] appears, read: Recovery rate B→A, 1st line of the compound (condition not given).
[19] abbreviates: Recovery rate B→A, 2nd line of the compound (condition not given).
The mark [20] stands for this setting: 1st line of the compound (condition not given).
Where [21] appears, read: 2nd line of the compound (condition not given).

Like-named read-outs stand apart in the source and are kept apart here.

As to `CC(C)CN(C[C@@H](O)[C@H](Cc1ccccc1)NC(=O)O[C@H]1CCOC1)S(=O)(=O)c1ccc(N)cc1` [Amprenavir, amprenavir, reference compound], the recovery at 90 min in [1] (setting [16]) is 95.4%; in series [1] (setting [17]), 106%; in [1] (setting [18]), 102%; in [1] (setting [19]), 100%. Further, the PGP substrate judgment result in the series with MDCK cells [2] was “Yes”.

In general, IC50 refers to the concentration that gives 50% inhibition. In general, half-life refers to the time needed for the level to fall by half in the phase considered. A word on the microsomal CLint: it is a measure of how fast metabolising enzymes remove a compound, apart from limits set by blood flow. A higher microsomal CLint goes with rapid turnover. As usually defined, the efflux ratio is a quotient of directional permeabilities that is used to spot active efflux. Broadly, the Papp A→B is the apparent permeability from the apical to the basolateral side of a cell layer. A word on the Papp B→A: it is the apparent permeability from the basolateral to the apical side of a cell layer. Regarding `CCOc1cccc(Nc2nn(C)c3c2Cc2cc(OCC)c(OCC(=O)NO)cc2-3)c1` [LL-02], the “metabolism in the liver microsomes (in words)” value in series [3] is given as “faster”. Besides, the IC50 in series [4] amounted to 23.5 nM; in [5], 13.2 nM; in series [6] it was 8.33 nM; in series [7], 3.36 nM; in [8], 16.4 nM; in the series with tubulin (read-out: tubulin polymerization inhibiting IC50), 5330 nM. The half-life at 1 µM in “in vitro [9]” is 7.5 min; in “in vitro [11]” it was 1.3 min; in the series “in vitro [12]”, 12.9 min; in the series “in vitro [13]”, 24 min; in “in vitro [14]” it was 17.8 min. Also, the microsomal CLint at 1 µM came out at 185 µL/min/mg in the series “in vitro [9]”; 1070 µL/min/mg in the series “in vitro [11]”; 108 µL/min/mg in “in vitro [12]”; 57.7 µL/min/mg in “in vitro [13]”; 78 µL/min/mg in the series “in vitro [14]”. Besides, the efflux ratio at 90 min in the series on P-gp is 4.4. For the same compound, the PGP substrate judgment entry in the series on MDCK cells [10] (MDCK cells) is “is the PGP substrate and Yes”. In addition, the “Permeability Judgment” value in the series on MDCK cells [10] (MDCK cells) is listed as “moderate permeability”. Also, the Efllux ratio with MDCK cells [10] (Papp(B→A)/Papp(A→B), 2nd line of the compound (condition not given)) turned out to be 0.6. Moreover, the Papp A→B at 90 min in series [1] (setting [20]) was 7.4 ×10⁻⁶ cm/s; in series [1] (setting [21]), 12.4 ×10⁻⁶ cm/s. Also, the Papp B→A at 90 min in series [1] (setting [20]) turned out to be 32.6 ×10⁻⁶ cm/s; in [1] (setting [21]), 6.9 ×10⁻⁶ cm/s. In addition, the recovery at 90 min in series [1] (setting [16]) was 59.2%; in series [1] (setting [17]), 89.4%; in series [1] (setting [18]), 91.3%; in [1] (setting [19]), 79.4%. The “inhibition of tubulin polymerization (in words)” value with tubulin (FIGS. 1 and 2) is “able to inhibit tubulin polymerization”.

Turning to `COc1ccc2[nH]c([S+]([O-])Cc3ncc(C)c(OC)c3C)nc2c1` (stereo not shown) [omeprazole, reference compound], the half-life at 1 µM in series [15] was 15.7 min. In “in vitro [13]”, this compound showed a microsomal CLint at 1 µM of 88.3 µL/min/mg.
